From ChEMBL document CHEMBL6092220 (J Med Chem, 2024)
Activity calls are given as the source filed them. The calls are words filed in the database; no cut-off is given here.

Key:
[1] = target: Protein cereblon/Signal transducer and activator of transcription 2 (Homo sapiens) (UniProt Q96SW2+P52630); test: PROTAC activity at STAT2/CRBN in human MOLM16 cells assessed as reduction in STAT2 level upto 40 uM incubated for 4 hrs by Western blot analysis; type: cell-based
[2] = Stability in rat plasma assessed as parent compound remaining at […]; type: ADME, cell-free; conditions: read-out: Stability
[3] = Toxicity in iv dosed mouse assessed as weight gain; type: organism-based; conditions: in vivo, dose 5-20 mg/kg
[4] = Half life in ICR mouse at 5 mg/kg, iv; type: ADME, organism-based; conditions: in vivo
[5] = Half life in Sprague-Dawley rat at 5 mg/kg, iv; type: ADME, organism-based; conditions: in vivo
[6] = Drug concentration in female CB17 SCID mouse plasma at 5 mg/kg, iv measured at 24 hrs by LC-MS/MS analysis; type: ADME, organism-based
[7] = Stability in human plasma assessed as half life; type: ADME, cell-free
[8] = AUC (0 to t) in Beagle dog at 1 mg/kg, iv; type: ADME, organism-based, Canis lupus familiaris; conditions: in vivo
[9] = Stability in rat plasma assessed as half life; type: ADME, cell-free
[10] = Stability in mouse plasma assessed as parent compound remaining at […]; type: ADME, cell-free; conditions: read-out: Stability
[11] = Stability in human Hepatocyte assessed as half life; type: ADME, cell-based; conditions: hepatocytes
[12] = Antitumor activity against human MOLM16 cells xenografted in mouse assessed as tumor regression at 25 mg/kg, iv administered twice daily; type: functional, MOLM-16
[13] = Plasma protein binding in dog assessed as unbound fraction at 10 uM; type: ADME, cell-free, Canis lupus familiaris
[14] = Clearance in ICR mouse assessed as hepatic blood flow at 5 mg/kg, iv; type: ADME, organism-based; conditions: in vivo
[15] = Stability in dog plasma assessed as half life; type: ADME, cell-free, Canis lupus familiaris
[16] = Stability in Non human primate plasma assessed as parent compound remaining at […]; type: ADME, cell-free; conditions: read-out: Stability
Cytochrome P450 1A2 = Cytochrome P450 1A2 (Homo sapiens, UniProt P05177); test: Inhibition of CYP1A2 (unknown origin); type: ADME
Sequence of Cytochrome P450 1A2 (P05177 whole entry): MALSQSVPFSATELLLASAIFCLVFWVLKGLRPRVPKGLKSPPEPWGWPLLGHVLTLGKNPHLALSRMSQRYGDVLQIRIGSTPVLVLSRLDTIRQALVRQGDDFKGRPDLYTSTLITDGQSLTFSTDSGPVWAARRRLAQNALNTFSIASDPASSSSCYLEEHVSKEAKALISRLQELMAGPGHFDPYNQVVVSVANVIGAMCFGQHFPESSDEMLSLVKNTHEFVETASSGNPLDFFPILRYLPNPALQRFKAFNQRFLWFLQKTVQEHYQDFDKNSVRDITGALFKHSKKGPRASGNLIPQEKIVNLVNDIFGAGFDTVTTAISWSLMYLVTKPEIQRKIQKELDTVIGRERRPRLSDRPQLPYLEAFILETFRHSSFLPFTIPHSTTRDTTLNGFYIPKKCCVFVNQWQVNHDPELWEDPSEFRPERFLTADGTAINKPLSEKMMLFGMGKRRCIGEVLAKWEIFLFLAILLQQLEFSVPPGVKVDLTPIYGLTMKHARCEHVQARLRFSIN

[17] = target: Signal transducer and activator of transcription 4 (Homo sapiens) (UniProt Q14765); test: Binding affinity to STAT4 (unknown origin) assessed as maximum inhibition by FP assay relative to control
Sequence of Signal transducer and activator of transcription 4 (Homo sapiens) (Q14765 whole entry): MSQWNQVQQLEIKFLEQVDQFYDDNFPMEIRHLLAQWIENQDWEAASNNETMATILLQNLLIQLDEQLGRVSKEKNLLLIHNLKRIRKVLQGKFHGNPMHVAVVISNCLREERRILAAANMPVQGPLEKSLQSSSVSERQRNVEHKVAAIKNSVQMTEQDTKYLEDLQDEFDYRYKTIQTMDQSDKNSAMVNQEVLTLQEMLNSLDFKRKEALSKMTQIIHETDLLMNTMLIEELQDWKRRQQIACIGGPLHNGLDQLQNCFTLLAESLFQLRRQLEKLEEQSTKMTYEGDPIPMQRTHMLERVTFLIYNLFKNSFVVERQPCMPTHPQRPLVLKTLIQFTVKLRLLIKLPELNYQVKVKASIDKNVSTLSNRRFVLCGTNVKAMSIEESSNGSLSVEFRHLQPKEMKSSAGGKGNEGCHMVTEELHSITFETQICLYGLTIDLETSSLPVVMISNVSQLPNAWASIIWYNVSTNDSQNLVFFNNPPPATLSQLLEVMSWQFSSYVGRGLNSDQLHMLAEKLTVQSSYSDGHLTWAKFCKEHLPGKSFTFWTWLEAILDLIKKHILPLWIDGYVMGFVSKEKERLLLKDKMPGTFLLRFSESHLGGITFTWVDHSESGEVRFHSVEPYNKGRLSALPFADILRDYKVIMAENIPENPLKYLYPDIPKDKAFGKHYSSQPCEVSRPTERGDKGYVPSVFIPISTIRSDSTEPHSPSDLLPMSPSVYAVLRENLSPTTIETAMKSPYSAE

[18] = target: Signal transducer and activator of transcription 4 (Homo sapiens, UniProt Q14765); test: Binding affinity to STAT4 (unknown origin) by FP assay
Sequence of Signal transducer and activator of transcription 4 (Q14765 whole entry): as above

[19] = Drug concentration in female CB17 SCID mouse liver at 5 mg/kg, iv measured at 72 hrs by LC-MS/MS analysis; type: ADME, organism-based; conditions: read-out: Ct
[20] = Antitumor activity against human MOLM16 cells xenografted in mouse assessed as tumor regression at 5 mg/kg, iv; type: functional, MOLM-16
[21] = Drug concentration in female CB17 SCID mouse liver at 5 mg/kg, iv measured at 3 hrs by LC-MS/MS analysis; type: ADME, organism-based; conditions: read-out: Ct
[22] = target: T1, Protein cereblon/Signal transducer and activator of transcription 3 (Mus musculus) (UniProt P42227+Q8C7D2); test: In-vivo PROTAC activity at STAT3/CRBN in female CB17 SCID mouse assessed as STAT3 depletion spleen at 5 mg/kg, iv measured at 1 hr by immunobloting analysis; type: functional, organism-based
T1 sequence (P42227 whole entry, looked up): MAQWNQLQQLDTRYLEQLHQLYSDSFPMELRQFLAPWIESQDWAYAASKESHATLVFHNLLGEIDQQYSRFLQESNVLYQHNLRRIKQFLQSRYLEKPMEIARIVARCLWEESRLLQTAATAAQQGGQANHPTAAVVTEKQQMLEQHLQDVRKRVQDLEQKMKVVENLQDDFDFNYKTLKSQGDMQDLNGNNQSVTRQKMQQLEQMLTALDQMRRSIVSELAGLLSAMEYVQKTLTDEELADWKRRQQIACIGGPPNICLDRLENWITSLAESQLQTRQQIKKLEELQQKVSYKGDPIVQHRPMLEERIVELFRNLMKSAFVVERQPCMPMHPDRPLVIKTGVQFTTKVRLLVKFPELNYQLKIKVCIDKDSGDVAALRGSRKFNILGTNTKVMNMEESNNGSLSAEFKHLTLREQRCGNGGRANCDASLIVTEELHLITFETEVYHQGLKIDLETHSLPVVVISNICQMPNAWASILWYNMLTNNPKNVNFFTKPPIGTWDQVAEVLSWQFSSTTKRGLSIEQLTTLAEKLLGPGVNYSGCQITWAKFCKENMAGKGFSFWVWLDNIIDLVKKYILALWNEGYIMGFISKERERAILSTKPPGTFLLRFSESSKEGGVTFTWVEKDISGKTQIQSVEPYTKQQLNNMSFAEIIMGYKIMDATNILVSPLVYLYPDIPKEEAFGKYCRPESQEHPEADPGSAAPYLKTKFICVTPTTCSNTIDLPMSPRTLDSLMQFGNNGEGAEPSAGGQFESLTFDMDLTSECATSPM
T1 sequence (Q8C7D2 whole entry, looked up): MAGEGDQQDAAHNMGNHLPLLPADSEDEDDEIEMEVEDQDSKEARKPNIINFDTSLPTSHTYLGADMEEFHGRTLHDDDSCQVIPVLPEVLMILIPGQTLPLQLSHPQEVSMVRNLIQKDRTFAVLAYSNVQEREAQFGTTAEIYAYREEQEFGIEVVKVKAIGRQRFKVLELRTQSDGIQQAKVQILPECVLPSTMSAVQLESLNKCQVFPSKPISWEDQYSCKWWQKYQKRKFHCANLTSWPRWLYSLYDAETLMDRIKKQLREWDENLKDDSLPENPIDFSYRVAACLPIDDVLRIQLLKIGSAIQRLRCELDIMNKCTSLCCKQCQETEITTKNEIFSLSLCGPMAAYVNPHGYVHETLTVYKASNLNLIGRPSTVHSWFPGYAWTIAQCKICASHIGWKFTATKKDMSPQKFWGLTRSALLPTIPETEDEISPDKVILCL

[23] = Drug concentration in female CB17 SCID mouse tumor at 5 mg/kg, iv measured at 48 hrs by LC-MS/MS analysis; type: ADME, organism-based, Neoplasm; conditions: read-out: Ct
Cytochrome P450 2C8 = Cytochrome P450 2C8 (Homo sapiens, UniProt P10632); test: Inhibition of CYP2C8 (unknown origin); type: ADME
Sequence of Cytochrome P450 2C8 (P10632 whole entry): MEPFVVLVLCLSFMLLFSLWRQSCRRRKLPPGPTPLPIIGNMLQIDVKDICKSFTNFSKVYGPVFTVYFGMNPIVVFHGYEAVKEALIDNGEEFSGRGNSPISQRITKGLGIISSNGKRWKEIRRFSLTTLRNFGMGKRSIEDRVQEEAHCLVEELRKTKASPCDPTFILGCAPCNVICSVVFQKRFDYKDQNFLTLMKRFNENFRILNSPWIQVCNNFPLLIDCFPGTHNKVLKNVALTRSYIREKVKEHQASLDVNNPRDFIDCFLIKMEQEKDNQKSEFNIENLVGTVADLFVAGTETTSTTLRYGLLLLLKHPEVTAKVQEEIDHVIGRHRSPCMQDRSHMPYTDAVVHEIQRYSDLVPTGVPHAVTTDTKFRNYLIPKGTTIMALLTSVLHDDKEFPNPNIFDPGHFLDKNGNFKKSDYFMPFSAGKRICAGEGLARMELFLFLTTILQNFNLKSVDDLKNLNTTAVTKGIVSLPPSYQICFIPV

[24] = Antitumor activity against human MOLM16 cells xenografted in mouse assessed as tumor regression at 25 mg/kg, iv; type: functional, MOLM-16
[25] = Drug concentration in female CB17 SCID mouse liver at 5 mg/kg, iv measured at 48 hrs by LC-MS/MS analysis; type: ADME, organism-based; conditions: read-out: Ct
[26] = target: T1, Protein cereblon/Signal transducer and activator of transcription 3 (Mus musculus); test: In-vivo PROTAC activity at STAT3/CRBN in female CB17 SCID mouse assessed as STAT3 depletion liver at 5 mg/kg, iv measured at 1 hr by immunobloting analysis; type: functional, organism-based

Sequence of Protein cereblon/Signal transducer and activator of transcription 2 (Homo sapiens) (P52630 whole entry, looked up): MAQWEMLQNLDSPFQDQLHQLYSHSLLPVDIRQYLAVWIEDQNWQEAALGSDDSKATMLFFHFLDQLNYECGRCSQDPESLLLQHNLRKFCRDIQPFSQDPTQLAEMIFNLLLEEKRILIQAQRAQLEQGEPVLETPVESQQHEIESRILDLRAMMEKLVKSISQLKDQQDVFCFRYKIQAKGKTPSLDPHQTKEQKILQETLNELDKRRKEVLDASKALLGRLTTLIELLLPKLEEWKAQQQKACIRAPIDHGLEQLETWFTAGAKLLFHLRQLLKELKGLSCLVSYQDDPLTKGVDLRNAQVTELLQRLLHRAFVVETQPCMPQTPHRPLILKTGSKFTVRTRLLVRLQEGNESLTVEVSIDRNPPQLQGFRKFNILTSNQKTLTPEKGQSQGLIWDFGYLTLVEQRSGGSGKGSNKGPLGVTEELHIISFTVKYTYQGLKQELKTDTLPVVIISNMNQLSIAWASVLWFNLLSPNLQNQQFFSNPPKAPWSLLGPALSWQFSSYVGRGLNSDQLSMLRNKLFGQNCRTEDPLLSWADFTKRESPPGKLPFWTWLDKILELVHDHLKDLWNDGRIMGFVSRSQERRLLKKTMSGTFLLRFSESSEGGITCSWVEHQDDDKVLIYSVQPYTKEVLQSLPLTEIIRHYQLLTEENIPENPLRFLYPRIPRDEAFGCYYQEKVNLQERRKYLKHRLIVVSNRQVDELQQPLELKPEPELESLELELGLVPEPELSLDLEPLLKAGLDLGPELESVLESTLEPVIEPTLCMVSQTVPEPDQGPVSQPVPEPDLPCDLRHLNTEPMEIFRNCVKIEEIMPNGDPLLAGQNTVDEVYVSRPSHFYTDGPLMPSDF
Sequence of Protein cereblon/Signal transducer and activator of transcription 2 (Homo sapiens) (Q96SW2 whole entry, looked up): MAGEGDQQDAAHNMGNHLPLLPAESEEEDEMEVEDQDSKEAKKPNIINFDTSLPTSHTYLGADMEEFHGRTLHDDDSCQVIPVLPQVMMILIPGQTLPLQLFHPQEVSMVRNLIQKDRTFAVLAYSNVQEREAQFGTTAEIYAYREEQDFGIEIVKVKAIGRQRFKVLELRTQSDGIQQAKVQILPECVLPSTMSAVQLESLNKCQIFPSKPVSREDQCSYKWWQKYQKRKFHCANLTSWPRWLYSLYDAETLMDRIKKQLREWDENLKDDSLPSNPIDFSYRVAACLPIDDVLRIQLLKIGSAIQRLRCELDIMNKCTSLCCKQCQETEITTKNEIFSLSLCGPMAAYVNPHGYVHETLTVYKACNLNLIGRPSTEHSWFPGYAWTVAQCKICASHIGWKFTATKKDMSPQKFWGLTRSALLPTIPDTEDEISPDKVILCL

COC(=O)N1CC[C@H]2CC[C@@H](C(=O)N[C@@H](CCC(N)=O)C(=O)N[C@@H](Cc3ccc(F)c(F)c3)C(=O)N3CCC(CCC#Cc4cccc5c4CN(C4CCC(=O)NC4=O)C5=O)CC3)N2C(=O)[C@@H](NC(=O)c2cc3cc(C(F)(F)P(=O)(O)O)ccc3s2)C1 (stereo partly drawn)
Activity [1]: inactive
remaining at 2 h [2]: 94%
Activity [3]: Non-toxic
half-life [4]: 22.1 h
half-life [5]: 1 h
concentration at 24 h [6]: 17100 ng/mL
t1/2 [7]: > 2 h
AUC(0-t) [8]: 10700 ng·h/mL
t1/2 [9]: > 2 h
remaining at 2 h [10]: 101%
t1/2 [11]: > 2 h
Activity [12]: 100%
Fu [13]: 1.7%
QH [14]: 0.1%
t1/2 [15]: > 2 h
remaining at 2 h [16]: 101%
IC50 (Cytochrome P450 1A2): > 10 µM
Imax [17]: 100%
IC50 [18]: 0.36 µM
concentration at 72 h [19]: 598 ng/g
Activity [20]: 76%
concentration at 3 h [21]: 3850 ng/g
Activity [22]: > 70%
concentration at 48 h [23]: 1110 ng/g
IC50 (Cytochrome P450 2C8): > 10 µM
Activity [24]: 100%
concentration at 48 h [25]: 1130 ng/g
Activity [26]: > 70%
